Columns and labels:
cGMP = assay: Phase I, healthy male subjects, inhaled once daily for 14 days: cGMP; format: in vivo, human; conditions: for cGMP changes from baseline: 1000 μg inhaled once daily for 14 days, n = 17; for cGMP concntration over time (mean +/− standard deviation): 1000 μg inhaled once daily, 14 days
Experimental: Healthy white male subjects, aged 18 to 45 years and with a body mass index (BMI) above/equal 18.5 and below/equal 29.9 kg/m2 were treated in a clinical pharmacological phase I study for 14 days with inhaled once daily doses of 1000 μg (nominal dose) or Placebo of dry powder of example 4. […] Drug activity/target engagement in healthy men was controlled in the healthy subjects by analysing blood samples for cGMP.

[1] = system: patients with PAH or CTEPH; assay: Phase 1b, inhaled single doses in patients with PAH or CTEPH: pulmonary vascular resistance (PVR), mPAP by right heart catheterization; format: in vivo, human
Experimental: Patients with PAH or CTEPH were treated in a clinical phase 1b study with escalating orally inhaled single doses* of 240 μg (2 capsules of 120 μg), 480 μg, 1000 μg, 2000 (2 capsules of 1000 μg) or […] (4 capsules of 1000 μg) of a dry powder of example 4 (see under C-1, e.g. tables 17 and 20), inserted into a handheld inhalation device, inhaled by deep inhalative breath into the deep parts of the lung. (*single dose means the administration of one dosage form/capsule as well as administration of two or more dosage forms/capsules simultaneously or consecutively within a short time period). The included patients had no background treatment with standard of care (SoC) medication for PAH or CTEPH (such as endothelin antagonists, prostanoids, phosphodiesterase type 5 inhibitor or soluble guanylate cyclase stimulators). Patients in this study underwent invasive right heart catheterization as medically indicated routine diagnostic. Primary objective of the study was to investigate the peak percent reduction from baseline in PVR. Patients had to have a baseline pulmonary artery pressure (mPAP) of ≥25 mmHg and a PVR of ≥400 dyn·sec·cm^−5 (5 Wood Units) and were not to show vaso-responsiveness to initial iNO inhalation testing to be included in the per protocol analysis. Plasma concentrations (pharmacokinetics) of the administered drug at several time points after administration were measured and safety and tolerability was assessed.
The study is divided into two parts, Part A and Part B. In Part A escalating aforementioned single doses were administered to patients without background treatment with standard of care (SoC) medication for PAH or CTEPH (such as endothelin antagonists, prostanoids, phosphodiesterase type 5 inhibitor or soluble guanylate cyclase stimulators). In Part B, after finalization of Part A, a selected dose from Part A will be tested in further patients without background SoC treatment (group 1) and additionally in patients on monotherapy with SoC (group 2) and on dual combination therapy with SoC (group 3).
The PVR is a derived parameter from parameters directly measured during the right heart catheterization procedure. The direct parameters included in the calculation are: mean pulmonary arterial pressure [mmHg](mPAP), pulmonary capillary wedge pressure [mmHg](PCWP), and cardiac output [1/min](CO). The PVR is calculated according to the formula: PVR [dyn*sec*cm^−5]=80*(mPAP−PCWP)/CO.

[2] = Storage stability of pseudopolymorphic forms (XRPD); format: physicochemical; conditions: same storage conditions as table 15

O=C(O)c1ccc(CCN(CCc2ccccc2OCc2ccc(-c3ccc(C(F)(F)F)cc3)cc2Cl)[C@H]2CCCc3nc(C(=O)O)ccc32)cc1 [Example 4, (5S)—{[2-(4-Carboxyphenyl)ethyl][2-(2-{[3-chloro-4′-(trifluoromethyl)biphenyl-4-yl]methoxy}phenyl)-ethyl]amino}-5,6,7,8-tetrahydroquinoline-2-carboxylic Acid as Monohydrate I]
cGMP changes from baseline (cGMP; 0 D 02 H 00 M): 4840 pmol/L | cGMP changes from baseline (cGMP; 0 D 04 H 00 M): 7290 pmol/L | cGMP changes from baseline (cGMP; 0 D 06 H 00 M): 9950 pmol/L | cGMP changes from baseline (cGMP; 0 D 08 H 00 M): 10600 pmol/L | cGMP changes from baseline (cGMP; 0 D 12 H 00 M): 7530 pmol/L | cGMP changes from baseline (cGMP; 0 D 15 H 00 M): 6740 pmol/L | cGMP changes from baseline (cGMP; 1 D 00 H 00 M): 2980 pmol/L | cGMP changes from baseline (cGMP; 2 D 00 H 00 M): 4550 pmol/L | cGMP changes from baseline (cGMP; 2 D 03 H 00 M): 13000 pmol/L | cGMP changes from baseline (cGMP; 2 D 08 H 00 M): 16400 pmol/L | cGMP changes from baseline (cGMP; 2 D 12 H 00 M): 12600 pmol/L | cGMP changes from baseline (cGMP; 3 D 00 H 00 M (trough prior inhalation)): 5160 pmol/L | cGMP changes from baseline (cGMP; 4 D 00 H 00 M (trough prior inhalation)): 6360 pmol/L | cGMP changes from baseline (cGMP; 5 D 00 H 00 M (trough prior inhalation)): 5920 pmol/L | cGMP changes from baseline (cGMP; 6 D 00 H 00 M): 5090 pmol/L | cGMP changes from baseline (cGMP; 6 D 03 H 00 M): 13400 pmol/L | cGMP changes from baseline (cGMP; 6 D 08 H 00 M): 20100 pmol/L | cGMP changes from baseline (cGMP; 6 D 12 H 00 M): 13900 pmol/L | cGMP changes from baseline (cGMP; 7 D 00 H 00 M (trough prior inhalation)): 6180 pmol/L | cGMP changes from baseline (cGMP; 8 D 00 H 00 M (trough prior inhalation)): 6200 pmol/L | cGMP changes from baseline (cGMP; 9 D 00 H 00 M (trough prior inhalation)): 6580 pmol/L | cGMP changes from baseline (cGMP; 10 D 00 H 00 M): 6450 pmol/L | cGMP changes from baseline (cGMP; 10 D 03 H 00 M): 12700 pmol/L | cGMP changes from baseline (cGMP; 10 D 08 H 00 M): 17500 pmol/L | cGMP changes from baseline (cGMP; 10 D 12 H 00 M): 13000 pmol/L | cGMP changes from baseline (cGMP; 11 D 00 H 00 M (trough prior inhalation)): 6940 pmol/L | cGMP changes from baseline (cGMP; 12 D 00 H 00 M (trough prior inhalation)): 8060 pmol/L | cGMP changes from baseline (cGMP; 12 D 22 H 00 M): 6950 pmol/L | cGMP changes from baseline (cGMP; 13 D 02 H 00 M (after last inhalation)): 9120 pmol/L | cGMP changes from baseline (cGMP; 13 D 04 H 00 M (after last inhalation)): 12900 pmol/L | cGMP changes from baseline (cGMP; 13 D 06 H 00 M (after last inhalation)): 17000 pmol/L | cGMP changes from baseline (cGMP; 13 D 08 H 00 M (after last inhalation)): 17700 pmol/L | cGMP changes from baseline (cGMP; 13 D 12 H 00 M (after last inhalation)): 12900 pmol/L | cGMP changes from baseline (cGMP; 13 D 15 H 00 M (after last inhalation)): 12100 pmol/L | cGMP changes from baseline (cGMP; 14 D 00 H 00 M (after last inhalation)): 5410 pmol/L | cGMP changes from baseline (cGMP; 15 D 00 H 00 M (after last inhalation)): 2520 pmol/L | cGMP changes from baseline (cGMP; 15 D 12 H 00 M (after last inhalation)): 3040 pmol/L | cGMP changes from baseline (cGMP; 16 D 00 H 00 M (after last inhalation)): 2000 pmol/L | cGMP changes from baseline (cGMP; 16 D 12 H 00 M (after last inhalation)): 2410 pmol/L | cGMP changes from baseline (cGMP; 17 D 00 H 00 M (after last inhalation)): 400 pmol/L | cGMP changes from baseline (cGMP; 20 D 00 H 00 M (after last inhalation)): 1220 pmol/L | cGMP changes from baseline (cGMP; FOLLOW-UP): 1520 pmol/L | cGMP changes from baseline (cGMP; −0 D 09 H 00 M (pretreatment day)): 224 pmol/L | cGMP changes from baseline (cGMP; −0 D 12 H 00 M (pretreatment day)): 306 pmol/L | cGMP changes from baseline (cGMP; −0 D 16 H 00 M (pretreatment day)): 676 pmol/L | cGMP changes from baseline (cGMP; −0 D 18 H 00 M (pretreatment day)): −252.9 +/− 1345.9 | cGMP changes from baseline (cGMP; −0 D 20 H 00 M (pretreatment day)): −952.9 +/− 1984.7 | cGMP changes from baseline (cGMP; −0 D 22 H 00 M (pretreatment day)): −100.0 +/− 1403.1 | cGMP concntration over time (mean +/− standard deviation) (cGMP; 0 D 02 H 00 M): 9170 pmol/L | cGMP concntration over time (mean +/− standard deviation) (cGMP; 0 D 04 H 00 M): 11600 pmol/L | cGMP concntration over time (mean +/− standard deviation) (cGMP; 0 D 06 H 00 M): 14300 pmol/L | cGMP concntration over time (mean +/− standard deviation) (cGMP; 0 D 08 H 00 M): 14900 pmol/L | cGMP concntration over time (mean +/− standard deviation) (cGMP; 0 D 12 H 00 M): 11800 pmol/L | cGMP concntration over time (mean +/− standard deviation) (cGMP; 0 D 15 H 00 M): 11100 pmol/L | cGMP concntration over time (mean +/− standard deviation) (cGMP; 1 D 00 H 00 M): 7310 pmol/L | cGMP concntration over time (mean +/− standard deviation) (cGMP; 2 D 00 H 00 M): 8880 pmol/L | cGMP concntration over time (mean +/− standard deviation) (cGMP; 2 D 03 H 00 M): 17300 pmol/L | cGMP concntration over time (mean +/− standard deviation) (cGMP; 2 D 08 H 00 M): 20800 pmol/L | cGMP concntration over time (mean +/− standard deviation) (cGMP; 2 D 12 H 00 M): 16900 pmol/L | cGMP concntration over time (mean +/− standard deviation) (cGMP; 3 D 00 H 00 M): 9490 pmol/L | cGMP concntration over time (mean +/− standard deviation) (cGMP; 4 D 00 H 00 M): 10700 pmol/L | cGMP concntration over time (mean +/− standard deviation) (cGMP; 5 D 00 H 00 M): 10300 pmol/L | cGMP concntration over time (mean +/− standard deviation) (cGMP; 6 D 00 H 00 M): 9420 pmol/L | cGMP concntration over time (mean +/− standard deviation) (cGMP; 6 D 03 H 00 M): 17700 pmol/L | cGMP concntration over time (mean +/− standard deviation) (cGMP; 6 D 08 H 00 M): 24500 pmol/L | cGMP concntration over time (mean +/− standard deviation) (cGMP; 6 D 12 H 00 M): 18200 pmol/L | cGMP concntration over time (mean +/− standard deviation) (cGMP; 7 D 00 H 00 M): 10500 pmol/L | cGMP concntration over time (mean +/− standard deviation) (cGMP; 8 D 00 H 00 M): 10500 pmol/L | cGMP concntration over time (mean +/− standard deviation) (cGMP; 9 D 00 H 00 M): 10900 pmol/L | cGMP concntration over time (mean +/− standard deviation) (cGMP; 10 D 00 H 00 M): 10800 pmol/L | cGMP concntration over time (mean +/− standard deviation) (cGMP; 10 D 03 H 00 M): 17100 pmol/L | cGMP concntration over time (mean +/− standard deviation) (cGMP; 10 D 08 H 00 M): 21900 pmol/L | cGMP concntration over time (mean +/− standard deviation) (cGMP; 10 D 12 H 00 M): 17300 pmol/L | cGMP concntration over time (mean +/− standard deviation) (cGMP; 11 D 00 H 00 M): 11300 pmol/L | cGMP concntration over time (mean +/− standard deviation) (cGMP; 12 D 00 H 00 M): 12400 pmol/L | cGMP concntration over time (mean +/− standard deviation) (cGMP; 12 D 22 H 00 M): 11300 pmol/L | cGMP concntration over time (mean +/− standard deviation) (cGMP; 13 D 02 H 00 M): 13400 pmol/L | cGMP concntration over time (mean +/− standard deviation) (cGMP; 13 D 04 H 00 M): 17300 pmol/L | cGMP concntration over time (mean +/− standard deviation) (cGMP; 13 D 06 H 00 M): 21400 pmol/L | cGMP concntration over time (mean +/− standard deviation) (cGMP; 13 D 08 H 00 M): 22000 pmol/L | cGMP concntration over time (mean +/− standard deviation) (cGMP; 13 D 12 H 00 M): 17200 pmol/L | cGMP concntration over time (mean +/− standard deviation) (cGMP; 13 D 15 H 00 M): 16400 pmol/L | cGMP concntration over time (mean +/− standard deviation) (cGMP; 14 D 00 H 00 M): 9740 pmol/L | cGMP concntration over time (mean +/− standard deviation) (cGMP; 15 D 00 H 00 M): 6850 pmol/L | cGMP concntration over time (mean +/− standard deviation) (cGMP; 15 D 12 H 00 M): 7370 pmol/L | cGMP concntration over time (mean +/− standard deviation) (cGMP; 16 D 00 H 00 M): 6330 pmol/L | cGMP concntration over time (mean +/− standard deviation) (cGMP; 16 D 12 H 00 M): 6740 pmol/L | cGMP concntration over time (mean +/− standard deviation) (cGMP; 17 D 00 H 00 M): 4730 pmol/L | cGMP concntration over time (mean +/− standard deviation) (cGMP; 20 D 00 H 00 M): 5520 pmol/L | cGMP concntration over time (mean +/− standard deviation) (cGMP; FOLLOW-UP): 5850 pmol/L | cGMP concntration over time (mean +/− standard deviation) (cGMP; −0 D 02 H 00 M): 4330 pmol/L | cGMP concntration over time (mean +/− standard deviation) (cGMP; −0 D 09 H 00 M): 5490 pmol/L | cGMP concntration over time (mean +/− standard deviation) (cGMP; −0 D 12 H 00 M): 5570 pmol/L | cGMP concntration over time (mean +/− standard deviation) (cGMP; −0 D 16 H 00 M): 5940 pmol/L | cGMP concntration over time (mean +/− standard deviation) (cGMP; −0 D 18 H 00 M): 5010 pmol/L | cGMP concntration over time (mean +/− standard deviation) (cGMP; −0 D 20 H 00 M): 4310 pmol/L | cGMP concntration over time (mean +/− standard deviation) (cGMP; −0 D 22 H 00 M): 5160 pmol/L | cGMP concntration over time (mean +/− standard deviation) (cGMP; −1 D 02 H 00 M): 5260 pmol/L | steady state of cGMP concentration reached after (cGMP; 1000 μg once daily inhalation): ≤ 11 days | mean pulmonary arterial pressure (mPAP), mean ± SD ([1]; 1000 μg inhaled single dose, N = 4, 0 D 03 H 00 M): 34.0 ± 11.6 mmHg | enduring mean change of PVR from baseline ([1]; 2000 μg group): approximately −30% | enduring mean change of PVR from baseline ([1]; 4000 μg group): approximately −30% | effect sustained with no decrease in response until end of measurement period ([1]; PVR after single inhaled dose): ≥ 3 h | tolerability ([1]; including the highest dose of 4000 μg): good tolerability | storage stability [2]: stable
